The values below come from publication PMC8157947, “Peptidic boronic acids are potent cell-permeable inhibitors of the malaria parasite egress serine protease SUB1” (Proceedings of the National Academy of Sciences of the …, 2021).

For one assay, the system named is P. falciparum schizonts. Description: Washout egress assay, hemoglobin release into culture supernatants. To be noted: Plasmodium falciparum; 4 h pretreatment, then washout. The format is cell-based. The protocol:
Short-term egress, invasion, and washout assays were performed essentially as described previously ([27], [28], [42]). Briefly, highly synchronous mature Percoll-enriched schizonts with or without added fresh RBCs (∼5% parasitaemia final) were incubated with compounds under test or vehicle only (DMSO, 1% vol/vol). For washout assays, schizonts were treated with C2 or various concentrations of inhibitor 3j for 1 to 4 h, then washed extensively (at least four times) prior to addition to fresh RBCs where required. After incubation at 37 °C for just 1 to 4 h (or overnight for invasion assays) to allow schizont rupture, cells were pelleted. Clarified culture supernatants were assessed for extent of hemoglobin release (a measure of schizont rupture) by absorption spectroscopy at 415 nm as described previously ([28]) or analyzed by Western blot using antibodies against SERA5 ([7], [11]). To quantify generation of new rings, samples of the cultures were fixed with 4% paraformaldehyde/0.02% glutaraldehyde and stained with SYBR Green I (Life Technologies) and then analyzed by flow cytometry on a BD FACSVerse using BD FACSuite software. Data were analyzed using FlowJo software. All cultures were also routinely analyzed by microscopic examination of Giemsa-stained thin films to visually assess parasite morphology.

For a further assay, the target named is T1, α-chymotrypsin (Bos taurus, UniProt P00766).
T1 construct: purchased Sigma-Aldrich C3142; host or cells: bovine pancreas
As to the kind of experiment: α-Chymotrypsin inhibition assay (N-Suc-LLVY-AMC cleavage). It is filed as biochemical. To be noted: bovine. As for the experimental part:
Analytical data are in accor dance with those reported in the literature12.
(+)-Pinanediol (1- am inobenzyl)boronate h ydrochloride 9g
A previousl y reported m ethod was used for the first step of the s ynthesis3.
Phenylm agnesium brom ide 0.7 M (3.1 m L, 2.15 mm ol, 1.2 equiv) was added dropwise at −78°C to a solution of (+)-pinanediol dichloromethyl boronate 24 (470 m g, 1.79 mmol, 1.0 equiv) in anh ydrous dieth yl ether (10 m L). Af ter 15 m in ZnCl2 1 M (1.8 m L, 1.8 mm ol, 1.0 equiv) was slowl y added at this t em perature. T he reaction m ixture was allowed to warm up to room tem perature over 2 hours. The inorganic precipitate was filtered off and the solvents were rem oved in vacuo. The residue was dissolved in pentane, washed with water and dried over Na2SO4. Rem oval of the solvent gives a product which was forwarded to the next step without purification. […]
Assays f or inh ib ition of tr yp s in activity (T PC K trea ted, f rom bovine pa ncreas; Sigm a-Aldrich T 1426) were based on cleavage of the fluorogenic peptide substrate Boc -QAR-AMC (Sigma- Aldrich B4153). which contains the fluorescent 7- am ino-4-m ethyl c oum arin (AMC) group. […] Cleavage of this bond results in release of AMC and i ncreased fluorescence. […]

Assay [1] concerns the target T2, recombinant PfSUB1 (rPfSUB1) (Plasmodium falciparum, UniProt Q8I0V0).
T2 construct: Chymotrypsin-treated rPfSUB1 (expressed and purified as described previously); made in house
Description: rPfSUB1 fluorogenic peptide substrate cleavage inhibition assay. It is filed as biochemical. To be noted: versus mammalian trypsin, chymotrypsin and elastase.

Where only a bound is given, the exact number is not on record here.

T2 sequence (Q8I0V0 218-688): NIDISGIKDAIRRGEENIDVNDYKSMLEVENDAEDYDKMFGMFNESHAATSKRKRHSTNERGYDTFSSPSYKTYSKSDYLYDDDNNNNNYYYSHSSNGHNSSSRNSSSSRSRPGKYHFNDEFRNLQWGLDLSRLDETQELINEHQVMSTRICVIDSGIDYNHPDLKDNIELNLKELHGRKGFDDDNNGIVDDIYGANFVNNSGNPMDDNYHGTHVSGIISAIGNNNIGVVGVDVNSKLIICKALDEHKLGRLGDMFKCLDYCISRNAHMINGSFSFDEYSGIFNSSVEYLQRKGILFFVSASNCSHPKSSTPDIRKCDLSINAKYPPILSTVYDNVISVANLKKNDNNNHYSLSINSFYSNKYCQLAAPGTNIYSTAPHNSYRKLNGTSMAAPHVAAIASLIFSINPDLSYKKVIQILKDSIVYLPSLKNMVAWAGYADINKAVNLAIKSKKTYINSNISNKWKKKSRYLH

Broadly, the EC50 is the concentration at which the effect is half-maximal. The term IC50 denotes the point on the concentration scale where inhibition reaches its midpoint. Regarding `CC(=O)NC(C(=O)NC(C(=O)NCC(=O)NC(C)B(O)O)C(C)C)C1CCCC1` (stereo not drawn) [3j], the concentration for a half-maximal effect (EC50) with P. falciparum schizonts is approximately 2000 nM. The molecule also showed an IC50 on α-chymotrypsin of more than 200000 nM. In addition, in assay [1], the “selectivity for PfSUB1” value was more than 100 fold.
